According to patent publication US20260055117A1, “SUBSTITUTED PYRIDONE GPR84 ANTAGONISTS AND USES THEREOF” (Liminal BioSciences Limited, priority 2022, published 2026):
pIC50: −log10 of the molar value.

Biological target: T1, human GPR84 receptor (Homo sapiens, UniProt Q9NQS5)
T1 construct: host or cells: HEK293, transiently transfected
Test: Gαi biosensor BRET assay (GPR84 antagonism vs agonist ZQ-16)
Type: cell-based
Settings: HEK293 cells, 200 nmol/L agonist ZQ-16; for pIC50: Gαi biosensor BRET assay; for inhibition at 2 µM: tested at 2 μM (concentration code A); for inhibition at 10 µM: tested at 10 μM (concentration code D)
Description: Background—The following assays can be used for determination of GPR84 activation in living HEK293 cells. The Gai BRET biosensor (Gagnon et al., 2018; Gales et al., 2006. Nat Struct Mol Biol. 13, 778-86; Saulieres et al., 2012. Nat Chem Biol. 8, 622-30) allows to directly monitor GPR84-mediated activation of Gai. The Gai biosensor consists of a Rluc8-tagged Gai2 subunit, a GFP10-tagged Gy2 subunit, and an untagged GB1. Agonist stimulation and GPR84 activation triggers a physical separation between the RLuc8-Gai donor and the GFP10-Gy2 acceptor, resulting in a decrease in BRET signal whose amplitude is correlated to ligand efficacy (Gales et al., 2006). Moreover, signaling functions of GPCRs are tightly regulated by endocytosis, the targeting of receptors to endosomes and their sorting to lysosomes or recycling to the plasma membrane. The early endosomes (EEs) trafficking assay (Namkung et al., 2016. Nat Commun. 7, 12178) uses Rluc8-tagged GPR84 and Renilla GFP (rGFP) attached to the FYVE domain from human endofin/zinc finger FYVE domain-containing protein 16, which binds phosphatidylinositol 3-phosphate in EEs. Agonist stimulation of GPR84-Rluc8 leads to trafficking of the receptor to EEs, and ensuing increase of the donor concentration relative to the rGFP-FYVE acceptor anchored in the same cellular compartment, and thus results in an increase in BRET signal.
Plasmids—The cDNA clones for human GPR84 receptor, human Gai2, GB1, and Gy2 were obtained from the cDNA Resource Center (www.cdna.org). GFP10 (F64L, S147P, S202F and H231L variant of Aequorea victoria Green Fluorescent Protein) gBlocks gene fragments (Integrated DNA Technologies, IA) and linker were inserted in frame at the N-terminus of human Gy2. Rluc8 (A55T, C124A, S130A, K136R, A143M, M185V, M253L, and S287L variant of the Renilla reniformis luciferase) gBlocks gene fragment was inserted with linkers in frame in between residues 91 and 92 of Gai2 or at the C-terminus of GPR84. The FYVE domain from human endofin (residues Q739 to K806) attached in frame at the C terminus of a humanized Renilla GFP (rGFP), were synthesized as gBlocks gene fragments.
Bioluminescence Resonance Energy Transfer (BRET) Measurement-HEK293 cells were transfected with GPR84-Rluc8 and rGFP-FYVE for the EEs trafficking biosensor or with GPR84, Gai2-Rluc8, GFP10-Gy2, and GB1 for the Ga; biosensor. The following day, transiently transfected cells were seeded in 96-well white clear bottom microplates coated with poly-D-lysine and left in culture for 24 hours. Cells were washed once with Tyrode's buffer (140 mmol/L NaCl, 1 mmol/L CaCl2), 2.7 mmol/L KCl, 0.49 mmol/L MgCl2, 0.37 mmol/L NaH2PO4, 5.6 mmol/L glucose, 12 mmol/L NaHCO3, and 25 mmol/L HEPES, pH 7.5) before performing assays in Tyrode's buffer. Test compounds were incubated with cells for 5 (Gai) or 15 (EEs) minutes at 37° C. before addition of 200 nmol/L of the GPR84 agonist ZQ-16 (2-(Hexylthio)-6-hydroxy-4 (3H)-pyrimidinone) for 5 minutes at room temperature (Gai) or 30 minutes at 37° C. (EEs). The Rluc8 substrate coelenterazine 400A (Prolume, Lakeside, A Z) was added at a final concentration of 5 μmol/L and BRET readings were collected using an Infinite M1000 microplate reader (Tecan, Morrisville, N C). BRET2 readings between Rluc8 and GFP10 or rGFP were collected by sequential integration of the signals detected in the 370 to 450 nm (Rluc8) and 510 to 540 nm (GFP10, rGFP) windows. The BRET signal was calculated as the ratio of light emitted by acceptor (GFP10, rGFP) over the light emitted by donor (Rluc8). The values were corrected to net BRET by subtracting the background BRET signal obtained in cells transfected with Rluc8 constructs alone. Ligand-promoted net BRET values were calculated by subtracting vehicle-induced net BRET from ligand-induced net BRET.

T1 sequence (Q9NQS5 whole entry): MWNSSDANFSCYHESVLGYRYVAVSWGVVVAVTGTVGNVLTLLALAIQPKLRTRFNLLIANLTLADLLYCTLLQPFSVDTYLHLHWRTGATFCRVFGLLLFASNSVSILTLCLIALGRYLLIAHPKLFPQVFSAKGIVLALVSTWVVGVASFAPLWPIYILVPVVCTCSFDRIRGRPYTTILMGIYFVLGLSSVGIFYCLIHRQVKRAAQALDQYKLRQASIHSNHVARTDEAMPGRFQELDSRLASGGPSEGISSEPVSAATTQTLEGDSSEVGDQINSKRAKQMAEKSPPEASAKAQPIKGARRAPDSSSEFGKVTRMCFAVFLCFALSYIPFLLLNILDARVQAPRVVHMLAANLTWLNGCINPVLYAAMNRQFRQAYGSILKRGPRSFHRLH

| Structure (SMILES) | pIC50 | inhibition at 2 µM [%] | inhibition at 10 µM [%] |
| --- | --- | --- | --- |
| Cc1cc(OCC(=O)N2C3CCC2COC3)cc(=O)n1[C@H](C)c1ccc(C#CC2CC2)cc1 [Compound I-324] | ≥ 6.52 | > 75 |  |
| Cc1cc(OCC(=O)N2CC[C@H](C3CC3)C2)cc(=O)n1[C@H](C)c1ccc(C#CC2CC2)cc1 [Compound I-312] |  | > 75 |  |
| Cc1cc(OCC(=O)N2CC3(CCC3)C2)cc(=O)n1[C@H](C)c1ccc(C#CC2CC2)cc1 [Compound I-282] | ≥ 6.52 | > 75 |  |
| Cc1cc(OCC(=O)N2CC3CCC2CO3)cc(=O)n1[C@H](C)c1ccc(C#CC2CC2)cc1 (some centres unmarked) [Compound I-326] | 5.52 to 6.00 |  | > 75 |
| Cc1cc(OCC(=O)N2CCC3(CC3)C2)cc(=O)n1[C@H](C)c1ccc(C#CC2CC2)cc1 [Compound I-319] | ≥ 6.52 | > 75 |  |
| Cc1cc(OCc2ncccn2)cc(=O)n1[C@H](C)c1ccc(OC(C)C)cc1 [Compound I-129] |  |  | < 25 |
| Cc1cc(OCc2cnc(NS(=O)(=O)C(F)(F)F)nc2)cc(=O)n1[C@H](C)c1ccc(C#CC2CC2)cc1 [Compound I-82] | ≥ 6.52 | > 75 |  |
| Cc1nc(OCC(=O)N2CCCC2)cc(=O)n1[C@H](C)c1ccc(C#CC2CC2)cc1 [Compound I-235] | ≥ 6.52 | > 75 |  |
| Cc1cc(OCc2ncncc2Cl)cc(=O)n1[C@H](C)c1ccc(C#CC2CC2)cc1 [Compound I-15] | ≥ 6.52 |  | > 75 |
| Cc1nnc(COc2cc(C)n([C@H](C)c3ccc(C#CC4CC4)c(F)c3)c(=O)c2)o1 [Compound I-17] | ≥ 6.52 | > 75 |  |
| Cc1cc(OCC(=O)NC2CCN(C)CC2)cc(=O)n1[C@H](C)c1ccc(C#CC2CC2)cc1 [Compound I-43] |  |  | 50 to 75 |
| Cc1cc(OCc2ncc(NS(C)(=O)=O)cn2)cc(=O)n1[C@H](C)c1ccc(C#CC2CC2)cc1 [Compound I-11] | ≥ 6.52 | > 75 |  |
| Cc1cc(OCc2ncccn2)cc(=O)n1[C@H](C)c1ccc(C#CC#CC2CC2)cc1 [Compound I-75] |  |  | < 25 |
| Cc1nc(OCC(=O)N2CC[C@@H](C(=O)O)C2)cc(=O)n1[C@H](C)c1ccc(C#CC2CC2)cc1 [Compound I-298] |  |  | > 75 |
| Cc1cc(OCC(=O)NC2CCOCC2)cc(=O)n1[C@H](C)c1ccc(C#CC2CC2)cc1 [Compound I-66] | 6.00 to 6.52 |  | 50 to 75 |
| Cc1cc(OCc2cnc(NS(C)(=O)=O)nc2)cc(=O)n1[C@H](C)c1ccc(C#CC2CC2)cc1 [Compound I-81] | ≥ 6.52 |  | > 75 |
| Cc1cc(OCC(=O)N2CC[C@@H](S(C)(=O)=O)C2)cc(=O)n1[C@H](C)c1ccc(C#CC2CC2)cc1 [Compound I-252] | ≥ 6.52 | > 75 |  |
| Cc1cc(OCC(=O)NCCN2CCCC2)cc(=O)n1[C@H](C)c1ccc(C#CC2CC2)cc1 [Compound I-346] |  |  | 25 to 50 |
| Cc1cc(OCc2ncc(NS(=O)(=O)C(F)(F)F)cn2)cc(=O)n1[C@H](C)c1ccc(C#CC2CC2)cc1 [Compound I-76] | ≥ 6.52 | > 75 |  |
| Cc1cc(OCS(N)(=O)=O)cc(=O)n1[C@H](C)c1ccc(C#CC2CC2)c(F)c1 [Compound I-46] |  |  | > 75 |
| Cc1nc(OCC(=O)N2CC[C@H](C(=O)O)C2)cc(=O)n1[C@H](C)c1ccc(C#CC2CC2)cc1 [Compound I-299] | 5.52 to 6.00 | > 75 |  |

Other lines, results leading:

| pIC50 | inhibition at 2 µM [%] | inhibition at 10 µM [%] | Structure (SMILES) |
| --- | --- | --- | --- |
| ≥ 6.52 | > 75 |  | [2H]C1(C#Cc2ccc([C@@H](C)n3c(C)cc(OCC(=O)N(C)C)cc3=O)cc2)CC1 [Compound I-73] |
| ≥ 6.52 | > 75 |  | [2H]C([2H])([2H])N(C(=O)COc1cc(C)n([C@H](C)c2ccc(C#CC3CC3)cc2)c(=O)c1)C([2H])([2H])[2H] [Compound I-6] |
| 6.00 to 6.52 |  | > 75 | Cc1cc(OCC(=O)N2CC(C)(C)C2)cc(=O)n1[C@H](C)c1ccc(C#CC2CC2)cc1 [Compound I-342] |
|  |  | < 25 | Cc1cc(OCC(=O)N(C)C)cc(=O)n1[C@H](C)c1ccc(C(=O)O)cc1 [Compound I-265] |
| ≥ 6.52 | > 75 |  | Cc1cc(OCC(=O)N(C)C)cc(=O)n1[C@H](C)c1ccc(C#CC2CC2)c(C#N)c1 [Compound I-34] |
| ≥ 6.52 | > 75 |  | Cc1cc(OCC(=O)N2CC[C@H](O)C2)cc(=O)n1[C@H](C)c1ccc(C#CC2CC2)cc1 [Compound I-242] |
| ≥ 6.52 |  | > 75 | Cc1cc(OCC(=O)N(C)C)cc(=O)n1[C@H](C)c1ccc(C#CC2(C)CC2)cc1 [Compound I-80] |
| ≥ 6.52 | > 75 |  | Cc1cc(OCC(=O)N(C)C)cc(=O)n1[C@H](C)c1ccc(C#CC2CC2)c(Cl)c1 [Compound I-29] |
| 6.00 to 6.52 |  | > 75 | Cc1cc(OCC(=O)NC2CC2)cc(=O)n1[C@H](C)c1ccc(C#CC2CC2)cc1 [Compound I-50] |
| ≥ 6.52 |  | > 75 | Cc1nc(OCC(=O)N(C)C2COC2)cc(=O)n1[C@H](C)c1ccc(C#CC2CC2)cc1 [Compound I-68] |
| 5.52 to 6.00 |  | > 75 | Cc1cc(OCC(=O)N2CC[C@@H]2C(=O)O)cc(=O)n1[C@H](C)c1ccc(C#CC2CC2)cc1 [Compound I-300] |
| ≥ 6.52 | > 75 |  | Cc1cc(OCC(=O)N2CC3(CC3)C2)cc(=O)n1[C@H](C)c1ccc(C#CC2CC2)cc1 [Compound I-344] |
|  |  | 50 to 75 | Cc1cc(OCC(=O)NC2COC2)cc(=O)n1[C@H](C)c1ccc(C#CC2CC2)cc1 [Compound I-52] |
|  |  | 50 to 75 | Cc1cc(OCC(=O)N(C)C)c(O)c(=O)n1[C@H](C)c1ccc(C#CC2CC2)cc1 [Compound I-286] |
|  |  | > 75 | Cc1cc(OCc2ncn[nH]2)cc(=O)n1[C@H](C)c1ccc(C#CC2CC2)cc1 [Compound I-328] |
| ≥ 6.52 | > 75 |  | Cc1cc(OCc2nnn[nH]2)cc(=O)n1[C@H](C)c1ccc(C#CC2CC2)cc1 [Compound I-259] |
|  | < 25 |  | COc1ccc([C@H](C)n2c(C)cc(C#CC3CC3)cc2=O)cc1 [Compound I-239] |
|  |  | > 75 | Cc1cc(OCC(=O)N2CCNCC2)cc(=O)n1[C@H](C)c1ccc(C#CC2CC2)cc1 [Compound I-61] |
| ≥ 6.52 | > 75 |  | Cc1cc(OCC(=O)N2CC(O)C2)cc(=O)n1[C@H](C)c1ccc(C#CC2CC2)cc1 [Compound I-293] |
| ≥ 6.52 | > 75 |  | Cc1cc(OCC(=O)N(C)CC(F)(F)F)cc(=O)n1[C@H](C)c1ccc(C#CC2CC2)cc1 [Compound I-232] |
| ≥ 6.52 | > 75 |  | Cc1cc(OCC(=O)N2CCOCC2)cc(=O)n1[C@H](C)c1ccc(C#CC2CC2)cc1 [Compound I-3] |
| ≥ 6.52 | > 75 |  | Cc1cc(OCC(=O)N(C)C)cc(=O)n1[C@H](C)c1ccc(C#CC2CC2)c(F)c1 [Compound I-14] |
|  |  | 50 to 75 | Cc1cc(OCC(=O)NC2CC(F)(F)C2)cc(=O)n1[C@H](C)c1ccc(C#CC2CC2)cc1 [Compound I-51] |
